# Source: ChEMBL document CHEMBL4376834, “Discovery of 4H-Chromen-4-one Derivatives as a New Class of Selective Rho Kinase (ROCK) Inhibitors, which Showed Potent Activity in ex Vivo Diabetic Retinopathy Models” (J Med Chem, 2019)
# How the values were obtained:
# [1] = target: Platelet-derived growth factor receptor beta (Homo sapiens, UniProt P09619); assay: Inhibition of human PDGFRbeta (557 to end residues) using poly(Glu, Tyr) 4:1 as substrate measured after 40 mins in presence of [gamma33P]ATP by radiometric scintillation counting analysis
# [2] = target: Tyrosine-protein kinase Lck (Homo sapiens, UniProt P06239); assay: Inhibition of recombinant full length activated human LCK using […] as substrate after 40 mins in presence of [gamma-33ATP] by radiometric scintillation counting analysis
# Chain of Tyrosine-protein kinase Lck (P06239 whole entry): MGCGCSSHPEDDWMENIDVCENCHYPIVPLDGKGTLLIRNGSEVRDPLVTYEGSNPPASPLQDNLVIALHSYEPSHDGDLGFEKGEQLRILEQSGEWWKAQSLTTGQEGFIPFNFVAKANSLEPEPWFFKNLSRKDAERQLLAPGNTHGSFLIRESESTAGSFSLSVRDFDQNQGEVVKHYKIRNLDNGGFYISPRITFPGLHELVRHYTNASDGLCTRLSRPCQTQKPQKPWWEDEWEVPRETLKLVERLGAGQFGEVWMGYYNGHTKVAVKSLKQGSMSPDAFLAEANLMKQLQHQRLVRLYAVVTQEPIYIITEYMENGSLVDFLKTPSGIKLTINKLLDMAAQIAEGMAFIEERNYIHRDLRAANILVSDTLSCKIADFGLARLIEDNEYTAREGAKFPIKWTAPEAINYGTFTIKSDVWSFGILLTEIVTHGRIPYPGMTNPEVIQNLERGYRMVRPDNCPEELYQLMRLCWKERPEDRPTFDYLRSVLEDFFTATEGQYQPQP
# [3] = target: Beta-adrenergic receptor kinase 1 (Homo sapiens, UniProt P25098); assay: Inhibition of recombinant full length human GRK2 using casein as substrate after 40 mins in presence of [gamma-33ATP] by radiometric scintillation counting analysis
# Chain of Beta-adrenergic receptor kinase 1 (P25098 whole entry): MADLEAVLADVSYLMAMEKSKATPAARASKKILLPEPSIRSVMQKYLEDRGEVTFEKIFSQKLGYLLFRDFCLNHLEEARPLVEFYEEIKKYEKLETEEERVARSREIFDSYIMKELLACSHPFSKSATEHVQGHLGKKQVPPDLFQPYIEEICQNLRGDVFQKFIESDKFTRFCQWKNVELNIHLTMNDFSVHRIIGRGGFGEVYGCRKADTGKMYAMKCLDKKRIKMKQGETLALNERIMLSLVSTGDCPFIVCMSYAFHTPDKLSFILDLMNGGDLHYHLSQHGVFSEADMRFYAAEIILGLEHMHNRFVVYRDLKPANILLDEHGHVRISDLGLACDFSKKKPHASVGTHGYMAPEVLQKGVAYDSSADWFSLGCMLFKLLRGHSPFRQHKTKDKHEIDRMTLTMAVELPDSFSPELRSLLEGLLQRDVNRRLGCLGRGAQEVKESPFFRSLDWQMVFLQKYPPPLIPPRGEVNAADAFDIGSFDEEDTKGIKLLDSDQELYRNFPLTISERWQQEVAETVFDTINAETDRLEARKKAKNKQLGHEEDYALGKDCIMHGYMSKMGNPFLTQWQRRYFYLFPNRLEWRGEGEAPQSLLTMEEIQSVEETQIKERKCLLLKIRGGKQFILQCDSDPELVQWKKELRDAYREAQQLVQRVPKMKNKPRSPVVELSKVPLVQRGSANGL
# [4] = target: Mast/stem cell growth factor receptor Kit (Homo sapiens, UniProt P10721, D816H); assay: Inhibition of recombinant human C-Kit D816H mutant (544 to end residues) using poly(Glu, Tyr) 4:1 as substrate incubated 40 mins in presence of [gamma-33ATP] by radiometric scintillation counting analysis
# [5] = target: Interferon-induced, double-stranded RNA-activated protein kinase (Homo sapiens, UniProt P19525); assay: Inhibition of recombinant human PKR (252 to end residues) using RSRSRSRSRSRSRS as substrate incubated for 40 mins in presence of [gamma33P]ATP by radiometric scintillation counting analysis
# [6] = target: PAS domain-containing serine/threonine-protein kinase (Homo sapiens, UniProt Q96RG2); assay: Inhibition of recombinant human PASK (995 to end residues) using KKLNRTLSFAEPG as substrate measured after 40 mins in presence of [gamma33P]ATP by radiometric scintillation counting analysis
# [7] = target: G protein-coupled receptor kinase 5 (Homo sapiens, UniProt P34947); assay: Inhibition of recombinant full length human GRK5 using casein as substrate after 40 mins in presence of [gamma-33ATP] by radiometric scintillation counting analysis
# [8] = target: Serine/threonine-protein kinase ULK3 (Homo sapiens, UniProt Q6PHR2); assay: Inhibition of recombinant human full length ULK3 using casein as substrate incubated for 40 mins in presence of [gamma33P]ATP by radiometric scintillation counting analysis
# Chain of Serine/threonine-protein kinase ULK3 (Q6PHR2 whole entry, the tested form may be a part): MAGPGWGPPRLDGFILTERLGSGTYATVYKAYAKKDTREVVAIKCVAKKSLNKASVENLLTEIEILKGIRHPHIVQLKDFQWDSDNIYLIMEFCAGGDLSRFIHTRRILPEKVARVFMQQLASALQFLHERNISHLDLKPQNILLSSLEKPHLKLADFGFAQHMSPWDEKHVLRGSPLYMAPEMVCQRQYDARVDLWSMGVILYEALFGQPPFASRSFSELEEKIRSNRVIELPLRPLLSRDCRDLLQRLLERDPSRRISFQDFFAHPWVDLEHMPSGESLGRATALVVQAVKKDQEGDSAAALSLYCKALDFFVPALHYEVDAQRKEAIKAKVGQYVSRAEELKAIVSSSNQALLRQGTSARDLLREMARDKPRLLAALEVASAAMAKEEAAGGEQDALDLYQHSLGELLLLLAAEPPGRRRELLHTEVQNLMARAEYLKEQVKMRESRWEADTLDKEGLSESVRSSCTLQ
# [9] = target: Fibroblast growth factor receptor 3 (Homo sapiens, UniProt P22607); assay: Inhibition of recombinant human FGFR3 (447 to 761 residues) using poly(Glu, Tyr) 4:1 as substrate after 40 mins in presence of [gamma-33ATP] by radiometric scintillation counting analysis
# Chain of Fibroblast growth factor receptor 3 (P22607 whole entry, the tested form may be a part): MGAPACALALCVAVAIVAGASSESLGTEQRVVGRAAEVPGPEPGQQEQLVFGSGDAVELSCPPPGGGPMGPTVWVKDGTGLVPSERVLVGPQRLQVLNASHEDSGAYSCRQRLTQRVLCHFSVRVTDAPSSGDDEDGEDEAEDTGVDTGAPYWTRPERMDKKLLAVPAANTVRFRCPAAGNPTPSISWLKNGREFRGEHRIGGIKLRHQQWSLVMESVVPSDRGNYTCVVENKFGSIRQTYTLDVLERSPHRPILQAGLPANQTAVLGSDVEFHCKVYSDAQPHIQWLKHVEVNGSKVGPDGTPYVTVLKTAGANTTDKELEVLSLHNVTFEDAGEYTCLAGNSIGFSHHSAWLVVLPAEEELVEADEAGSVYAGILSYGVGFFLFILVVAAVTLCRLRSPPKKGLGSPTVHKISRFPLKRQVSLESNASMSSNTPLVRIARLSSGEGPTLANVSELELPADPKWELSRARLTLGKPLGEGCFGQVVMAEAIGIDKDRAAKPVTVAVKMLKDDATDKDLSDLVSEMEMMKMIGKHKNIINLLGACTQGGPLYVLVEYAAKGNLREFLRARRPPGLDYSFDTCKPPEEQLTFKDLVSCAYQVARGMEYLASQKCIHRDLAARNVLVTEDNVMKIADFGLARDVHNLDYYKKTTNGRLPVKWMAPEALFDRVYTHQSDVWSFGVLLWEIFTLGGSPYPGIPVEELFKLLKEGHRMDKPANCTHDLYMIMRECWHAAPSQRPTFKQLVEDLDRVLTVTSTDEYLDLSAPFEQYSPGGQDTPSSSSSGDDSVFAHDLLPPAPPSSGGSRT
# Ephrin type-A receptor 5 = Ephrin type-A receptor 5 (Homo sapiens, UniProt P54756); assay: Inhibition of recombinant human EphA5 (655 to 956 residues) using poly(Glu, Tyr) 4:1 as substrate measured after 40 mins in presence of [gamma33ATP] by radiometric scintillation counting analysis
# [10] = Inhibition of recombinant human DDR1 V833L mutant (492 to end residues) using KKKSPGEYVNIEF as substrate after 40 mins in presence of [gamma-33ATP] by radiometric scintillation counting analysis
# [11] = target: Serine/threonine-protein kinase 25 (Homo sapiens, UniProt O00506); assay: Inhibition of recombinant human STK25 (1 to 308 residues) using RLGRDKYKTLRQI as substrate incubated for 40 mins in presence of [gamma33P]ATP by radiometric scintillation counting analysis
# [12] = target: cAMP-dependent protein kinase catalytic subunit PRKX (Homo sapiens, UniProt P51817); assay: Inhibition of recombinant human full length PrKX using RRRLSFAEPG as substrate incubated for 40 mins in presence of [gamma33P]ATP by radiometric scintillation counting analysis
# Chain of cAMP-dependent protein kinase catalytic subunit PRKX (P51817 whole entry): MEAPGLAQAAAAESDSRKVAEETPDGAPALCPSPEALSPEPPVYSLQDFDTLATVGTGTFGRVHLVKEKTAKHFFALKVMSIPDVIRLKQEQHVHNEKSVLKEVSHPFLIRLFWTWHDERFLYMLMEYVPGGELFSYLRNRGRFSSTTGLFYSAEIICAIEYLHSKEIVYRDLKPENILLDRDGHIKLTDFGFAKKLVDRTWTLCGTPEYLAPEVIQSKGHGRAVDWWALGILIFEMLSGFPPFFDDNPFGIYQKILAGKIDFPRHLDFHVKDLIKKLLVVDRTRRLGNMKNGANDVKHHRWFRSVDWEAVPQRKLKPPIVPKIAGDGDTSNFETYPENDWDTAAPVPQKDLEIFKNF
# [13] = target: Mitogen-activated protein kinase 8 (Homo sapiens, UniProt P45983); assay: Inhibition of recombinant full length human JNK1alpha1 using ATF2 as substrate after 40 mins by [gamma-33ATP] by radiometric scintillation counting analysis
# [14] = target: Tyrosine-protein kinase TXK (Homo sapiens, UniProt P42681); assay: Inhibition of recombinant human Txk (256 to end residues) using GEEPLYWSFPAKK as substrate incubated for 40 mins in presence of [gamma33P]ATP by radiometric scintillation counting analysis
# [15] = target: Serine/threonine-protein kinase D2 (Homo sapiens, UniProt Q9BZL6); assay: Inhibition of recombinant full-length human PKD2 using KKLNRTLSVA as substrate incubated for 40 mins in presence of [gamma33P]ATP by radiometric scintillation counting analysis
# Ephrin type-B receptor 3 = Ephrin type-B receptor 3 (Homo sapiens, UniProt P54753); assay: Inhibition of recombinant human EphB3 (599 to 920 residues) using poly(Glu, Tyr) 4:1 as substrate after 40 mins in presence of [gamma-33ATP] by radiometric scintillation counting analysis
# [16] = target: Ribosomal protein S6 kinase alpha-4 (Homo sapiens, UniProt O75676); assay: Inhibition of recombinant human MSK2 (2 to end residues) using GRPRTSSFAEGKK as substrate incubated for 40 mins in presence of [gamma-33ATP by radiometric scintillation counting analysis
# [17] = target: ALK tyrosine kinase receptor (Homo sapiens, UniProt Q9UM73); assay: Inhibition of human recombinant ALK (1058 to end residues) using KKKSPGEYVNIEF as substrate incubated for 40 mins in presence of [gamma-33P]ATP by radiometric scintillation counting analysis
# Ephrin type-A receptor 2 = Ephrin type-A receptor 2 (Homo sapiens, UniProt P29317); assay: Inhibition of recombinant human EphA2 (596 to 900 residues) using poly(Glu, Tyr) 4:1 as substrate after 40 mins in presence of [gamma-33ATP] by radiometric scintillation counting analysis
# Chain of Ephrin type-A receptor 2 (P29317 whole entry, the tested form may be a part): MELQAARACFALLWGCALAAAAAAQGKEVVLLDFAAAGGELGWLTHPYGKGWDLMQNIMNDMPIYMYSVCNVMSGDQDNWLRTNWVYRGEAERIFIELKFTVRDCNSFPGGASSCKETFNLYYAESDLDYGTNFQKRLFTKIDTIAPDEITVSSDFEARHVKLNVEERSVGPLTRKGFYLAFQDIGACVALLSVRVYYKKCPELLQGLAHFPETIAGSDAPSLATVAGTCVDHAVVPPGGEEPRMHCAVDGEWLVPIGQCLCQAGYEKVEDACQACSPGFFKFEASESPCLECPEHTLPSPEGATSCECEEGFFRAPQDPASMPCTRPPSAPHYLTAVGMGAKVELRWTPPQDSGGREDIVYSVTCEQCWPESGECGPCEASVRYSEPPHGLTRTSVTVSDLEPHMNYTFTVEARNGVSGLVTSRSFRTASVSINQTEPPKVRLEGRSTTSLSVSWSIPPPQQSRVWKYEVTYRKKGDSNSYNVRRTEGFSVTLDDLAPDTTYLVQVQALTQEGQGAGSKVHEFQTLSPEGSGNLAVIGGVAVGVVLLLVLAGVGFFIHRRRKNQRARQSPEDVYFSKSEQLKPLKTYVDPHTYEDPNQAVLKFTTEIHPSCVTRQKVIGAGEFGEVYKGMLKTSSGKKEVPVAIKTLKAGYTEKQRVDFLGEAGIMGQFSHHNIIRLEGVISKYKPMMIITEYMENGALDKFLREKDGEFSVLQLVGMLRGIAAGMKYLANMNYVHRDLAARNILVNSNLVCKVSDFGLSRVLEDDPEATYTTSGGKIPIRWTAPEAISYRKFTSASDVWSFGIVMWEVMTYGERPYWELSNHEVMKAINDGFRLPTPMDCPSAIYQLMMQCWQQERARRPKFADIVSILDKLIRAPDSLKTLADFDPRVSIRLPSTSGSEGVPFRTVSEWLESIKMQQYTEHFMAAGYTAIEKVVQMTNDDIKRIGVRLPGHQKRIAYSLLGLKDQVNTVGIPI
# [18] = target: Transient receptor potential cation channel subfamily M member 7 (Homo sapiens, UniProt Q96QT4); assay: Inhibition of recombinant human CHAK1 (1180 to end residues) using myelin basic protein as substrate incubated for 40 mins in presence of [gamma-33ATP] by radiometric scintillation counting analysis
# [19] = Inhibition of human recombinant full length AURORA-A I31F mutant using kemptide as substrate incubated for 40 mins in presence of [gamma-33P]ATPand 10 uM ATP by radiometric scintillation counting analysis
# [20] = target: Eukaryotic elongation factor 2 kinase (Homo sapiens, UniProt O00418, H23R); assay: Inhibition of recombinant human eEF2K H23R mutant (2 to end residues) using RKKFGESEKTKTK as substrate after 40 mins in presence of [gamma-33ATP] by radiometric scintillation counting analysis
# Ephrin type-A receptor 4 = Ephrin type-A receptor 4 (Homo sapiens, UniProt P54764); assay: Inhibition of recombinant human EphA4 (601 to 892 residues) using poly(Glu, Tyr) 4:1 as substrate measured after 40 mins in presence of [gamma33ATP] by radiometric scintillation counting analysis
# Chain of Ephrin type-A receptor 4 (P54764 whole entry, the tested form may be a part): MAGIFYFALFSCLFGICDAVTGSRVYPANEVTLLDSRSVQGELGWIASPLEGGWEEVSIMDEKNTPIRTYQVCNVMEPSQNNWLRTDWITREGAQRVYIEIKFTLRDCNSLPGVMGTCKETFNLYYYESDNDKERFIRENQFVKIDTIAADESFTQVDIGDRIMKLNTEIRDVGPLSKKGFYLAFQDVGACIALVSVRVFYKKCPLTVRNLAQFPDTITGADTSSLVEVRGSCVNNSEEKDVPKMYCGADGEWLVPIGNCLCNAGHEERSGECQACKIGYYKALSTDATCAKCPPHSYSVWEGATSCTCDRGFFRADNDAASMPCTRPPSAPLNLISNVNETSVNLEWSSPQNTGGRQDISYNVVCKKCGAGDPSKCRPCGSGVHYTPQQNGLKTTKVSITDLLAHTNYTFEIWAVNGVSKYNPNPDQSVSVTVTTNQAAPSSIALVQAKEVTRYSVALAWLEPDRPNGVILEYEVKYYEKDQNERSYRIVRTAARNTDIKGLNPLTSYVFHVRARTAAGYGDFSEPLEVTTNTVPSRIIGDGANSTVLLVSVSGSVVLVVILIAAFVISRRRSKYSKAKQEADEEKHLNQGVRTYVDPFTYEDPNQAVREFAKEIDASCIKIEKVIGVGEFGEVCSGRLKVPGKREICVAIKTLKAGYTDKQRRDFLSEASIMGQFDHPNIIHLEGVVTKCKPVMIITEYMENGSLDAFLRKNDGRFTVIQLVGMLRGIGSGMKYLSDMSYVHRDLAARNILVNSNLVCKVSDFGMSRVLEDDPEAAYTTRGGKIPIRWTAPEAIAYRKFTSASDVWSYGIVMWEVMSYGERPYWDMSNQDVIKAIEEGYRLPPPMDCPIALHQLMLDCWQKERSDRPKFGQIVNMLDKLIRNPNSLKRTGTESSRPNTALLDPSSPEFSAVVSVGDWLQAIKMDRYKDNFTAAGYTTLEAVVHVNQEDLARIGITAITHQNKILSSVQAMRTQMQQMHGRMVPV
# [21] = target: Mitogen-activated protein kinase kinase kinase 2 (Homo sapiens, UniProt Q9Y2U5); assay: Inhibition of recombinant full length human MEKK2 using myelin basic protein as substrate incubated for 40 mins in presence of [gamma-33ATP by radiometric scintillation counting analysis
smiles,measurement,setting,value
CN(C)c1ccc(C(=O)Nc2cccc(NC(=O)COc3ccc4c(=O)ccoc4c3)c2)cc1,IC50,[1],> 10 µM
same,IC50,[2],> 10 µM
same,IC50,[3],> 10 µM
same,IC50,[4],> 10 µM
same,IC50,[5],> 10 µM
same,IC50,[6],> 10 µM
same,IC50,[7],> 10 µM
same,IC50,[8],> 10 µM
same,IC50,[9],> 10 µM
same,IC50,Ephrin type-A receptor 5,> 10 µM
same,IC50,[10],> 10 µM
same,IC50,[11],> 10 µM
same,IC50,[12],> 10 µM
same,IC50,[13],> 10 µM
same,IC50,[14],> 10 µM
same,IC50,[15],> 10 µM
same,IC50,Ephrin type-B receptor 3,> 10 µM
same,IC50,[16],> 10 µM
same,IC50,[17],> 10 µM
same,IC50,Ephrin type-A receptor 2,> 10 µM
same,IC50,[18],> 10 µM
same,IC50,[19],1.07 µM
same,IC50,[20],> 10 µM
same,IC50,Ephrin type-A receptor 4,> 10 µM
same,IC50,[21],> 10 µM
